Columns and labels:
Type in all cases: in vivo, rat
[1] = tested on: PAN-nephropathic rats; test: Metabolic cage measurements (24-hour urine, intake, plasma) in PAN-nephropathic rats
Method: A total of thirty-five, male Sprague Dawley rats (approximately 290 grams) were used. Rats were housed in the University of Pittsburgh Medical Center animal care facility (temperature, 22° C.; light cycle, 12 hours; relative humidity, 55%). Animals were fed Pro Lab RMH 3000 rodent diet (PMI Nutrition Inc., St Louis, Mo.) and were given water ad libitum. Institutional guidelines for animal welfare were followed, and the University of Pittsburgh Institutional Animal Care and Use Committee approved experimental protocols.
Before initiating treatment, and 3, and 6 and 11 weeks into the treatments, animals were placed in metabolic cages and allowed to acclimatize for two days before conducting the 24-hour measurements of urine volume, food and water intake and urinary sodium, potassium, creatinine, and protein excretion. Tail vein blood samples were also taken for measurement of plasma sodium, potassium, albumin and creatinine. Plasma and urine samples were analyzed for sodium and potassium concentrations using a flame photometer (Model IL-943; Instrumentations Laboratory Inc., Lexington, Ma.) and for creatinine concentrations using a creatinine analyzer (Creatinine Analyzer 2, Beckman Instrument, Inc., Fullerton Calif., USA). Total urine proteins were measured by a spectrophotometric assay using bicinchoninic acid reagent (Pierce; Rockford, Ill.) and a modification of Lowry method. Lowry, O. H., et al., J. Biol. Chem. 193: 265 (1951), the disclosure of which is incorporated herein by reference.
(§1) After baseline metabolic parameters were measured, animals were randomly assigned to receive subcutaneous saline (3 ml/kg; Control group, n=9) or puromycin aminonucleoside (PAN) (75 mg/kg; drug-induced nephrotoxic animals, n=26). PAN is a drug widely used to produce drug-induced nephrotoxicity in laboratory animals. Grond, J., et al., Contributions to Nephrology 60:83 (1988), the disclosure of which is incorporated herein by reference. Injections of PAN (20 mg/kg) were repeated after 2, 4, 8 and 10 weeks of treatment. Three hours after the initial injections, control animals were implanted with osmotic minipumps (model 2ML4, Alza, Palo Alto, Calif.) containing vehicle (polyethylene glycol 400, 2.5 μl/hour), whereas PAN-treated animals were implanted with osmotic minipumps containing either vehicle (PAN group, n=13) or 2-hydroxyestradiol (10 μg/kg/hour, PAN+2OHE group, n=13). Assignment to the PAN and PAN+2OHE groups was random. Six animals in the PAN group and 2 animals in the PAN+2OHE group died during the treatment, and these animals were not used in the final data analysis.

[2] = tested on: PAN-nephropathic rats; test: Acute measurements of renal hemodynamics and excretory function at 12 weeks; settings: 12 weeks of treatment
Method: as §1
At 12 weeks into treatment, animals were anesthetized with pentobarbital (45 mg/kg i.p.) and instrumented for measurements of renal hemodynamics and excretory function. Two polyethylene (PE)-50 catheters were inserted into left jugular vein for delivery of supplemental anesthetics and saline infusion (50 μl/min), respectively. Another PE-50 catheter was inserted into left carotid artery and connected to a blood-pressure analyzer (Micro-Med., Inc., Louisville, Ky.) for continuous measurement of blood pressure and heart rate. A PE-10 catheter was inserted into the left ureter to facilitate collection of urine, and a flow probe (Model 1RB; Transonic Systems, Inc., Ithaca, N.Y.) was placed on the left renal artery for determination of renal blood flow, which was used to calculate renal vascular resistance. Next, an infusion of ^14C-inulin (0.035 μCi/20 μl saline/min) was initiated and after 60 minutes, two 30-minute clearance periods were conducted. A mid-point blood sample (300 μl) was collected and plasma and urine ^14C-inulin radioactivity was measured. Renal clearance of ^14C-inulin was calculated as an estimate of glomerular filtration rate.

[3] = tested on: PAN-nephropathic rats; test: Plasma testosterone radioimmunoassay; settings: 12 weeks of treatment, male rats
Method: An aliquot of mid-point blood sample drawn during the first clearance period was used for testosterone measurements. Plasma testosterone levels were determined by radioimmunoassay using a commercial kit provided by ICN Biomedicals, Inc. (Costa Mesa, Calif.) according to the protocol of the manufacturer.

[4] = tested on: proliferating cell nuclear antigen (PCNA); test: Glomerular immunohistochemical staining for PCNA, quantitative image analysis; settings: 12 weeks of treatment, kidney sections
Method: (§2) Animals were killed by an overdose of anesthetic and kidneys were removed and weighed. One kidney was fixed in 10% formalin buffer and the second kidney was quick-frozen in liquid nitrogen and stored at −70° C. Kidney tissue samples were sectioned and processed into paraffin blocks for light microscopy. For labeling of collagen IV, renal cortical segments (5 μm) were incubated overnight at 4° C. with rabbit anti-mouse collagen IV antibody (dilution 1/500 ) obtained from Chemicon International Inc. (Temecula, Calif.). A primary monoclonal mouse antibody ( 1/200 dilution; Dako Corporation, Carpenteria, Calif.) was used to label proliferating cell nuclear antigen (PCNA). […] Nonspecific staining was assessed by replacing the primary antibody with phosphate buffered saline. […] Immunochemical staining for collagen IV and PCNA quantitatively was done with a SAMBA 4000 image analyzer (Image Products International, Chantilly, Va.) using specialized computer software (Immuno-Analysis, version 4.1, Microsoft, Richmond, Wash.), a color video camera and a Compaq computer. […] Ten high power fields (×400) were assessed for staining density or positively marked cells for ED-1. […] Staining intensity of positive areas was also assessed (mean optical density) and a mean quick score was then calculated (mean optical density×labeling index).

[5] = tested on: ED1 positive cells; test: Immunohistochemical staining for ED1 positive cells (macrophage infiltration) in glomeruli and interstitium; settings: 12 weeks of treatment, kidney sections
Method: as §2

[6] = tested on: collagen IV; test: Glomerular immunohistochemical staining for collagen IV, quantitative image analysis; settings: 12 weeks of treatment, kidney sections
Method: as §2

[7] = tested on: PAN-treated rats; test: Mortality during 12-week treatment of PAN-treated rats; settings: n=13 per group
Method: as §1

## CN(C)c1ncnc2c1ncn2[C@@H]1O[C@H](CO)[C@@H](N)[C@H]1O [PAN, puromycin aminonucleoside]
[1]; 0 wks of treatment (baseline)
  Body Weight: 293 ± 4 g
  Creatinine Excretion: 14.9 ± 2.5 mg/day
  FE - K+ (fractional excretion of potassium): 10.5 ± 0.7%
  FE - Na+ (fractional excretion of sodium): 0.13 ± 0.01%
  Fluid Intake: 5.33 ± 0.37 mL/h/kg
  Food Intake: 75 ± 2 g/kg/day
  Plasma Cholesterol: 53.6 ± 2.3 mg/dL
  Potassium Excretion: 10.9 ± 0.72 mEq/day/kg
  Sodium Excretion: 4.48 ± 0.95 mEq/day/kg
  Urine Volume: 1.78 ± 0.275 mL/h/kg
[1]; 3 wks of treatment
  Body Weight: 313 ± 1 g
  Creatinine Excretion: 11.1 ± 1.1 mg/day
  FE - K+ (fractional excretion of potassium): 27.3 ± 3.7 %
  FE - Na+ (fractional excretion of sodium): 0.37 ± 0.06%
  Fluid Intake: 7.58 ± 0.667 mL/h/kg
  Food Intake: 74 ± 4 g/kg/day
  Plasma Cholesterol: 353 ± 39.4 mg/dL
  Potassium Excretion: 10.7 ± 0.82 mEq/day/kg
  Sodium Excretion: 3.80 ± 0.58 mEq/day/kg
  Urine Volume: 4.192 ± 0.462 mL/h/kg
[1]; 6 wks of treatment
  Body Weight: 337 ± 15 g
  Creatinine Excretion: 8.8 ± 0.9 mg/day
  FE - K+ (fractional excretion of potassium): 30.1 ± 4.6 %
  FE - Na+ (fractional excretion of sodium): 0.71 ± 0.13 %
  Fluid Intake: 6.92 ± 0.542 mL/h/kg
  Food Intake: 69 ± 3 g/kg/day
  Plasma Cholesterol: 283.5 ± 39.5 mg/dL
  Potassium Excretion: 8.39 ± 0.61 mEq/day/kg
  Sodium Excretion: 3.92 ± 0.38 mEq/day/kg
  Urine Volume: 3.9 ± 0.512 mL/h/kg
[1]; 11 wks of treatment
  Body Weight: 382 ± 27 g
  Creatinine Excretion: 18.7 ± 3.0 mg/day
  FE - K+ (fractional excretion of potassium): 47.1 ± 7.7 %
  FE - Na+ (fractional excretion of sodium): 1.18 ± 0.35 %
  Fluid Intake: 6.62 ± 0.708 mL/h/kg
  Food Intake: 53 ± 5 g/kg/day
  Plasma Cholesterol: 349.6 ± 43.0 mg/dL
  Potassium Excretion: 9.63 ± 1.60 mEq/day/kg
  Sodium Excretion: 4.18 ± 0.58 mEq/day/kg
  Urine Volume: 4.712 ± 0.692 mL/h/kg
[1]; chronic treatment
  Creatinine clearance (in words, FIGS. 1B and 1C): reduced creatinine clearance
  Plasma creatinine levels (in words, FIG. 1A): increased plasma creatinine levels
  Urinary protein excretion (UPE; in words, FIG. 2A): induced severe proteinuria
[2]
  Blood pressure (in words): increased blood pressure
  GFR, inulin clearance (in words): decreased renal blood flow, renal plasma flow, hematocrit and glomerular filtration rate
  Hematocrit: 27 ± 2%
  Left Kidney: 2.10 ± 0.13 g
[2]; 14C-inulin clearance
  Glomerular Filtration Rate: 0.21 ± 0.07 ml/min/g kidney
[2]; acute experiment
  Body Weight: 368 ± 15
[2]; anesthetized
  Mean Blood Pressure: 153.0 ± 6.1 mm Hg
  Renal Blood Flow: 2.73 ± 0.24 ml/min/g kidney
  Renal Plasma Flow: 2.00 ± 0.19 ml/min/g kidney
  Renal Vascular Resistance: 63.6 ± 7.6 mm Hg/ml/min/g kid
  Urine Volume: 4.43 ± 0.85 μl/min/g kidney
[3]
  Plasma testosterone levels: 0.92 ± 0.27 ng/mL
[4]
  Labeling index of glomerular immunoreactive PCNA (in words, FIG. 3): markedly expanded
[5]
  Number of ED1 positive cells in glomeruli and interstitium (in words, FIG. 4): several-fold increase in the number of ED1 positive cells
[6]
  Glomerular collagen IV, labeling index (in words, FIGS. 5 and 6): significant increase in glomerular collagen IV content
[7]
  Animals died during the treatment: Six

From US20040082558A1, “Administration of estradiol metabolites for inhibition of drug-induced nephrotoxicity” (priority 2002, published 2004)
